# Measurements as given in US9802960B2 (MILLENNIUM PHARMACEUTICALS, INC., priority 2014, dated 2017).
# Molecular target: Human VPS34 (Homo sapiens (Human), UniProt Q8NEB9)
# Assay: Human VPS34 enzyme assay (Adapta TR-FRET)
# Type: biochemical
# Details: compound concentration 1.11 μM; read-out: Percent Inhibition
# Sequence of Human VPS34 (Q8NEB9 whole entry): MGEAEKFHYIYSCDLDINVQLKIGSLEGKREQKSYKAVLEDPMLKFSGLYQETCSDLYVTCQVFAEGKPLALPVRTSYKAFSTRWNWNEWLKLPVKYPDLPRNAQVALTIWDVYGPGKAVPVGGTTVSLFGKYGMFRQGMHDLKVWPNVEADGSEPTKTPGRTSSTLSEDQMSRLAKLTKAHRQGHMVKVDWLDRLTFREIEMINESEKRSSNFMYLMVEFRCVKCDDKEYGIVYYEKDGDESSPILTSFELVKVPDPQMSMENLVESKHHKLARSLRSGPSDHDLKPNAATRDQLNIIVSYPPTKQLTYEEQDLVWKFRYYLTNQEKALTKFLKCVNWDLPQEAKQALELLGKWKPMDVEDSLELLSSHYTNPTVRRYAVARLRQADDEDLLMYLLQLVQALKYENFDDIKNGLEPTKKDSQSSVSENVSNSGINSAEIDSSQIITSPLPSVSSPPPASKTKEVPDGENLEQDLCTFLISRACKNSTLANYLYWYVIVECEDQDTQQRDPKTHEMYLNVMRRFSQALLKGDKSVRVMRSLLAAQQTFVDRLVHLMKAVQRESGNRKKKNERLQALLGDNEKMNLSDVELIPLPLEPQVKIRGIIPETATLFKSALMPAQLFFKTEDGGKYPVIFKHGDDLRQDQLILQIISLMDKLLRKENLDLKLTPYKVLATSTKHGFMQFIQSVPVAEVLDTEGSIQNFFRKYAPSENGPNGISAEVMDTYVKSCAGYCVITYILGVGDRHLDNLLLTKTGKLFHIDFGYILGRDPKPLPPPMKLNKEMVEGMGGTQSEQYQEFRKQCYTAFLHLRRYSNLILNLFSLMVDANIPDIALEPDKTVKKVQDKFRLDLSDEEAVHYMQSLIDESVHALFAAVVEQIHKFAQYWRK
row,SMILES,inhibition at 1.11 µM [%]
1,"CC(=O)Nc1cc(-c2cnc(C)c(NS(=O)(=O)c3ccc(C(C)C)cc3)c2)ccn1 [Compound I-134, N-(5-{[(4-isopropylphenyl)sulfonyl]amino}-6-methyl-3,4′-bipyridin-2′-yl)acetamide]",> 99
2,"CC(=O)Nc1cc(-c2cnc3ncn(CC4CC4)c3c2)ccn1 [Compound I-135, N-{4-[1-(cyclopropylmethyl)-1H-imidazo[4,5-b]pyridin-6-yl]pyridin-2-yl}acetamide]",99
3,"CC(=O)Nc1cc(-c2cnc(N)c(C(=O)Nc3ccccc3Cl)c2)ccn1 [Compound I-136, 2′-acetamido-6-amino-N-(2-chlorophenyl)-3,4′-bipyridine-5-carboxamide]",> 99
4,"CC(=O)Nc1cc(-c2cncc(S(=O)(=O)N(C)C)c2)ccn1 [Compound I-137, N-[5-(dimethylsulfamoyl)-3,4′-bipyridin-2′-yl]acetamide]",> 99
5,"CC(=O)Nc1cc(-c2cnc(N)c(S(=O)(=O)Cc3ccc(F)cc3F)c2)ccn1 [Compound I-138, N-{6-amino-5-[(2,4-difluorobenzyl)sulfonyl]-3,4′-bipyridin-2′-yl}acetamide]",> 99
6,"CC(=O)Nc1cc(-c2cncc(N)c2)ccn1 [Compound I-139, N-(5-amino-3,4′-bipyridin-2′-yl)acetamide]",61
7,"CC(=O)Nc1cc(-c2cnc3[nH]ccc3c2)ccn1 [Compound I-140, N-[4-(1H-pyrrolo[2,3-b]pyridin-5-yl)pyridin-2-yl]acetamide]",> 99
8,"CNc1ncc(-c2ccnc(NC(C)=O)c2)cc1N(CC1CC1)S(C)(=O)=O [Compound I-141, N-{5-[(cyclopropylmethyl)(methylsulfonyl)amino]-6-(methylamino)-3,4′-bipyridin-2′-yl}acetamide]",> 99
9,"COc1cc(C)ccc1S(=O)(=O)Nc1cc(-c2ccnc(NC(C)=O)c2)cnc1C [Compound I-142, N-(5-{[(2-methoxy-4-methylphenyl)sulfonyl]amino}-6-methyl-3,4′-bipyridin-2′-yl)acetamide]",> 99
10,"CC(=O)Nc1cc(-c2cnc(C)c(NS(=O)(=O)c3cc(C(F)(F)F)ccc3F)c2)ccn1 [Compound I-143, N-[5-({[2-fluoro-5-(trifluoromethyl)phenyl]sulfonyl}amino)-6-methyl-3,4′-bipyridin-2′-yl]acetamide]",> 99
11,"CC(=O)Nc1cc(-c2cnc(C)c(NS(=O)(=O)c3ccccc3F)c2)ccn1 [Compound I-144, N-(5-{[(2-fluorophenyl)sulfonyl]amino}-6-methyl-3,4′-bipyridin-2′-yl)acetamide]",> 99
12,"CCOCCS(=O)(=O)c1cc(-c2ccnc(NC(C)=O)c2)cnc1N [Compound I-145, N-{6-amino-5-[(2-ethoxyethyl)sulfonyl]-3,4′-bipyridin-2′-yl}acetamide]",> 99
13,"COC(=O)Nc1cc(-c2cnc(C)c(N3CCCS3(=O)=O)c2)ccn1 [Compound I-146, methyl[5-(1,1-dioxidoisothiazolidin-2-yl)-6-methyl-3,4′-bipyridin-2′-yl]carbamate]",> 99
14,"CNc1ncc(-c2ccnc(NC(C)=O)c2)cc1N(C)S(C)(=O)=O [Compound I-147, N-{6-(methylamino)-5-[methyl(methylsulfonyl)amino]-3,4′-bipyridin-2′-yl}acetamide]",> 99
15,"CC(=O)Nc1cc(-c2cnc(N)c(S(=O)(=O)NCCc3ccccc3)c2)ccn1 [Compound I-148, N-{6-amino-5-[(2-phenylethyl)sulfamoyl]-3,4′-bipyridin-2′-yl}acetamide]",> 99
16,"CC(=O)Nc1cc(-c2cnc(N)c(C(=O)N(C)C)c2)ccn1 [Compound I-149, 2′-acetamido-6-amino-N,N-dimethyl-3,4′-bipyridine-5-carboxamide]",> 99
17,"CC(=O)Nc1cc(-c2cnc(C)c(NS(=O)(=O)c3c(F)cccc3F)c2)ccn1 [Compound I-150, N-(5-{[(2,6-difluorophenyl)sulfonyl]amino}-6-methyl-3,4′-bipyridin-2′-yl)acetamide]",> 99
18,"CC(=O)Nc1cc(-c2cnc3c(c2)c(S(=O)(=O)N2CCCC2)cn3C)ccn1 [Compound I-151, N-{4-[1-methyl-3-(pyrrolidin-1-ylsulfonyl)-1H-pyrrolo[2,3-b]pyridin-5-yl]pyridin-2-yl}acetamide]",> 99
19,"CC(=O)Nc1cc(-c2cnc(N)c(C(=O)N3CCOCC3)c2)ccn1 [Compound I-152, N-[6-amino-5-(morpholin-4-ylcarbonyl)-3,4′-bipyridin-2′-yl]acetamide]",> 99
20,"CC(=O)Nc1cc(-c2cnc(Cl)c(NS(=O)(=O)c3ccc(F)cc3F)c2C)ccn1 [Compound I-153, N-(6-chloro-5-{[(2,4-difluorophenyl)sulfonyl]amino}-4-methyl-3,4′-bipyridin-2′-yl)acetamide]",> 99

row,SMILES,inhibition at 1.11 µM [%]
1,"CC(=O)Nc1cc(-c2cnc(C)c(NS(=O)(=O)c3ccc(Cl)cc3)c2)ccn1 [Compound I-154, N-(5-{[(4-chlorophenyl)sulfonyl]amino}-6-methyl-3,4′-bipyridin-2′-yl)acetamide]",> 99
2,"CC(=O)Nc1cc(-c2cnc(C)c(NS(=O)(=O)c3cccc(F)c3)c2)ccn1 [Compound I-155, N-(5-{[(3-fluorophenyl)sulfonyl]amino}-6-methyl-3,4′-bipyridin-2′-yl)acetamide]",> 99
3,"CC(=O)Nc1cc(-c2cnc(N)c(S(=O)(=O)N3CCCCC3)c2)ccn1 [Compound I-156, N-[6-amino-5-(piperidin-1-ylsulfonyl)-3,4′-bipyridin-2′-yl]acetamide]",> 99
4,"CC(=O)Nc1cc(-c2cnc(N)c(C(=O)N3CC[C@@H](F)C3)c2)ccn1 [Compound I-157, N-(6-amino-5-{[(3R)-3-fluoropyrrolidin-1-yl]carbonyl}-3,4′-bipyridin-2′-yl)acetamide]",> 99
5,"CC(=O)Nc1cc(-c2cnc3[nH]cc(S(=O)(=O)N4CCCC4)c3c2)ccn1 [Compound I-158, N-{4-[3-(pyrrolidin-1-ylsulfonyl)-1H-pyrrolo[2,3-b]pyridin-5-yl]pyridin-2-yl}acetamide]",> 99
6,"COc1cc(F)c(S(=O)(=O)Nc2cc(-c3ccnc(NC(C)=O)c3)cnc2C)cc1F [Compound I-159, N-(5-{[(2,5-difluoro-4-methoxyphenyl)sulfonyl]amino}-6-methyl-3,4′-bipyridin-2′-yl)acetamide]",> 99
7,"CNc1ncc(-c2ccnc(NC(C)=O)c2)cc1C(=O)NC12CC(C1)C2 [Compound I-160, 2′-acetamido-N-(bicyclo[1.1.1]pent-1-yl)-6-(methylamino)-3,4′-bipyridine-5-carboxamide]",> 99
8,"CC(=O)Nc1cc(-c2cnc(C)c(NS(=O)(=O)c3ccc(F)cc3F)c2)c(F)cn1 [Compound I-161, N-(5-{[(2,4-difluorophenyl)sulfonyl]amino}-5′-fluoro-6-methyl-3,4′-bipyridin-2′-yl)acetamide]",> 99
9,"CC(=O)Nc1cc(-c2cnc(N(C)C)c(C(=O)N(C)C)c2)ccn1 [Compound I-162, 2′-acetamido-6-(dimethylamino)-N,N-dimethyl-3,4′-bipyridine-5-carboxamide]",> 99
10,"COc1ccc(S(=O)(=O)Nc2cc(-c3ccnc(NC(C)=O)c3)cnc2C)c(F)c1 [Compound I-163, N-(5-{[(2-fluoro-4-methoxyphenyl)sulfonyl]amino}-6-methyl-3,4′-bipyridin-2′-yl)acetamide]",> 99
11,"CC(=O)Nc1cc(-c2cnc(F)c(NS(=O)(=O)c3ccc(F)cc3F)c2)ccn1 [Compound I-164, N-(5-{[(2,4-difluorophenyl)sulfonyl]amino}-6-fluoro-3,4′-bipyridin-2′-yl)acetamide]",> 99
12,"COc1ccc(S(=O)(=O)Nc2cc(-c3ccnc(NC(C)=O)c3)cnc2C)cc1 [Compound I-165, N-(5-{[(4-methoxyphenyl)sulfonyl]amino}-6-methyl-3,4′-bipyridin-2′-yl)acetamide]",> 99
13,"CN(C)S(=O)(=O)c1cc(-c2ccnc(Nc3ncco3)c2)cnc1N [Compound I-166, 6-amino-N,N-dimethyl-2′-(1,3-oxazol-2-ylamino)-3,4′-bipyridine-5-sulfonamide]",> 99
14,"CC(=O)Nc1cc(-c2cnc(C)c(NS(C)(=O)=O)c2)ccn1 [Compound I-167, N-{6-methyl-5-[(methylsulfonyl)amino]-3,4′-bipyridin-2′-yl}acetamide]",> 99
15,"CC(=O)Nc1cc(-c2cnc(C)c(NS(=O)(=O)c3cccc(C(F)(F)F)c3)c2)ccn1 [Compound I-168, N-[6-methyl-5-({[3-(trifluoromethyl)phenyl]sulfonyl}amino)-3,4′-bipyridin-2′-yl]acetamide]",> 99
16,"CC(=O)Nc1cc(-c2cnc(N)c(C(=O)NC3CC3)c2)ccn1 [Compound I-169, 2′-acetamido-6-amino-N-cyclopropyl-3,4′-bipyridine-5-carboxamide]",> 99
17,"CC(=O)Nc1cc(-c2cnc(N)c(S(=O)(=O)Nc3ccc(F)cc3F)c2)ccn1 [Compound I-170, N-{6-amino-5-[(2,4-difluorophenyl)sulfamoyl]-3,4′-bipyridin-2′-yl}acetamide]",> 99
18,"COC(=O)Nc1cc(-c2cnc(N)c(S(=O)(=O)N(C)C)c2)ccn1 [Compound I-171, Methyl [6-amino-5-(dimethylsulfamoyl)-3,4′-bipyridin-2′-yl]carbamate]",> 99
19,"CNc1ncc(-c2ccnc(NC(C)=O)c2)cc1S(=O)(=O)N(C(C)C)C(C)C [Compound I-173, N-[5-(diisopropylsulfamoyl)-6-(methylamino)-3,4′-bipyridin-2′-yl]acetamide]",> 99
20,"CC(=O)Nc1cc(-c2cnc(N(C)C)c(C(=O)N(C)c3ccc(F)cc3F)c2)ccn1 [Compound I-174, 2′-Acetamido-N-(2,4-difluorophenyl)-6-(dimethylamino)-N-methyl-[3,4′-bipyridine]-5-carboxamide]",> 99

# Same assay, conditions: read-out: Percent Inhibition
row,SMILES,inhibition at 1.11 µM [%]
1,"CC(=O)Nc1cc(-c2cnc(N)c(S(=O)(=O)Cc3ccccc3Cl)c2)ccn1 [Compound I-172, N-{6-amino-5-[(2-chlorobenzyl)sulfonyl]-3,4′-bipyridin-2′-yl}acetamide]",> 99
